Source: patent publication US9474790B2, “Stable, protracted GLP-1/glucagon receptor co-agonists for medical use” (Novo Nordisk A/S, priority 2013, dated 2016)
Numbered stars: 1 amine (or outer) side, 2 acyl side, 3 side chain; on linkers, the order of the positions; unused ones are H or OH. Square brackets hold non-standard residues; d marks the D form. Side chains are listed from the residue outwards. Peptide text beside a SMILES is read from it. * marks the point of attachment. C18 diacid = O=C(O)CCCCCCCCCCCCCCCCC(=O)*; γGlu = O=C(O)[C@H](CCC(=O)[*:2])N[*:1]; Ac4c = NC1(C(=O)O)CCC1; AEEA = NCCOCCOCC(=O)O; Aib = CC(C)(N)C(=O)O

experiment: Thioflavin T (ThT) fibrillation assay for physical stability; type: physicochemical; settings: 250 μM in 10 mM HEPES buffer, pH 7.5, 37° C., shaking 960 rpm
Method in brief: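 Fibrillation was followed by ThT (1 μM) fluorescence every 20 min, 444/485 nm, for 250 μM peptide in 10 mM HEPES pH 7.5 shaken at 960 rpm, 37° C. Lag time (t0−2τ) and apparent rate constant (1/τ) come from a sigmoidal fit. Recovery is % of initial concentration remaining soluble after centrifugation and filtration (RP-HPLC).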

| SMILES | THT assay Lag time (Ex. 76) [h] |
| --- | --- |
| CC(C)C[C@H](NC(=O)[C@H](Cc1ccc(O)cc1)NC(=O)[C@H](CCCCN)NC(=O)[C@H](CO)NC(=O)[C@H](CC(C)C)NC(=O)[C@H](CC(=O)O)NC(=O)[C@H](CO)NC(=O)[C@@H](NC(=O)[C@H](Cc1ccccc1)NC(=O)[C@@H](NC(=O)CNC(=O)[C@H](Cc1c[nH]cn1)NC(=O)C(C)(C)NC(=O)[C@@H](N)Cc1c[nH]cn1)[C@@H](C)O)[C@@H](C)O)C(=O)N[C@@H](CCC(=O)O)C(=O)N[C@@H](CO)C(=O)N[C@@H](CCCNC(=N)N)C(=O)N[C@@H](CCCNC(=N)N)C(=O)N[C@@H](C)C(=O)N[C@@H](CCCNC(=N)N)C(=O)N[C@@H](CCC(=O)O)C(=O)N[C@@H](Cc1ccccc1)C(=O)N[C@H](C(=O)N[C@@H](CCC(N)=O)C(=O)N[C@@H](Cc1c[nH]c2ccccc12)C(=O)N[C@@H](CC(C)C)C(=O)N[C@@H](CC(C)C)C(=O)N[C@@H](CCCCNC(=O)CC[C@H](NC(=O)COCCOCCNC(=O)COCCOCCNC(=O)CC[C@H](NC(=O)CC[C@H](NC(=O)CCCCCCCCCCCCCCCCC(=O)O)C(=O)O)C(=O)O)C(=O)O)C(=O)N[C@H](C(N)=O)[C@@H](C)O)C(C)C [Example 30, N^ε28-[(4S)-4-carboxy-4-[[2-[2-[2-[[2-[2-[2-[[(4S)-4-carboxy-4-[[(4S)-4-carboxy-4-(17-carboxyheptadecanoylamino)butanoyl]amino]butanoyl]amino]ethoxy]ethoxy]acetyl]amino]ethoxy]ethoxy]acetyl]amino]butanoyl]-[Aib2,His3,Leu10,Glu15,Arg20,Glu21,Leu27,Lys28]-Glucagon amide] (H-H[Aib]HGTFTSDLSKYLESRRAREFVQWLLK([γGlu-AEEA-AEEA-γGlu-γGlu-C18 diacid])T-NH2; N-terminus assumed) | 45 |
| CC(C)C[C@H](NC(=O)[C@H](Cc1c[nH]c2ccccc12)NC(=O)[C@H](C)NC(=O)[C@@H](NC(=O)[C@H](Cc1ccccc1)NC(=O)[C@H](CCC(=O)O)NC(=O)[C@H](CCCNC(=N)N)NC(=O)[C@H](C)NC(=O)[C@H](CCCNC(=N)N)NC(=O)[C@H](CCCNC(=N)N)NC(=O)[C@H](CO)NC(=O)[C@H](CCC(=O)O)NC(=O)[C@H](CC(C)C)NC(=O)[C@H](Cc1ccc(O)cc1)NC(=O)[C@H](CCCCN)NC(=O)[C@H](CO)NC(=O)[C@H](CC(C)C)NC(=O)[C@H](CC(=O)O)NC(=O)[C@H](CO)NC(=O)[C@@H](NC(=O)[C@H](Cc1ccccc1)NC(=O)[C@@H](NC(=O)CNC(=O)[C@H](Cc1c[nH]cn1)NC(=O)C(C)(C)NC(=O)[C@@H](N)Cc1c[nH]cn1)[C@@H](C)O)[C@@H](C)O)C(C)C)C(=O)N[C@@H](CC(C)C)C(=O)N[C@@H](CCCCNC(=O)CC[C@H](NC(=O)COCCOCCNC(=O)COCCOCCNC(=O)CC[C@H](NC(=O)CC[C@H](NC(=O)CCCCCCCCCCCCCCCCC(=O)O)C(=O)O)C(=O)O)C(=O)O)C(=O)N[C@H](C(N)=O)[C@@H](C)O [Example 31, N^ε28-[(4S)-4-carboxy-4-[[2-[2-[2-[[2-[2-[2-[[(4S)-4-carboxy-4-[[(4S)-4-carboxy-4-(17-carboxyheptadecanoylamino)butanoyl]amino]butanoyl]amino]ethoxy]ethoxy]acetyl]amino]ethoxy]ethoxy]acetyl]amino]butanoyl]-[Aib2,His3,Leu10,Glu15,Arg20,Glu21,Ala24,Leu27, Lys28]-Glucagon amide] (H-H[Aib]HGTFTSDLSKYLESRRAREFVAWLLK([γGlu-AEEA-AEEA-γGlu-γGlu-C18 diacid])T-NH2; N-terminus assumed) | 45 |
| CC(C)C[C@H](NC(=O)[C@H](Cc1ccc(O)cc1)NC(=O)[C@H](CCCCN)NC(=O)[C@H](CO)NC(=O)[C@H](CC(C)C)NC(=O)[C@H](CC(=O)O)NC(=O)[C@H](CO)NC(=O)[C@@H](NC(=O)[C@H](Cc1ccccc1)NC(=O)[C@@H](NC(=O)CNC(=O)[C@H](Cc1c[nH]cn1)NC(=O)C(C)(C)NC(=O)[C@@H](N)Cc1c[nH]cn1)[C@@H](C)O)[C@@H](C)O)C(=O)N[C@@H](CCC(=O)O)C(=O)N[C@@H](CO)C(=O)N[C@@H](CCCNC(=N)N)C(=O)N[C@@H](CCCNC(=N)N)C(=O)N[C@@H](C)C(=O)N[C@@H](CCCNC(=N)N)C(=O)N[C@@H](CCC(=O)O)C(=O)N[C@@H](Cc1ccccc1)C(=O)N[C@H](C(=O)N[C@@H](CCC(N)=O)C(=O)N[C@@H](Cc1c[nH]c2ccccc12)C(=O)N[C@@H](CC(C)C)C(=O)N[C@@H](CC(C)C)C(=O)N[C@@H](CCCCNC(=O)CC[C@H](NC(=O)CC[C@H](NC(=O)COCCOCCNC(=O)COCCOCCNC(=O)CC[C@H](NC(=O)CCCCCCCCCCCCCCCCC(=O)O)C(=O)O)C(=O)O)C(=O)O)C(=O)N[C@H](C(N)=O)[C@@H](C)O)C(C)C [Example 33, N^ε28-[(4S)-4-carboxy-4-[[(4S)-4-carboxy-4-[[2-[2-[2-[[2-[2-[2-[[(4S)-4-carboxy-4-(17-carboxyheptadecanoylamino)butanoyl]amino]ethoxy]ethoxy]acetyl]amino]ethoxy]ethoxy]acetyl]amino]butanoyl]amino]butanoyl]-[Aib2,His3,Leu10,Glu15,Arg20,Glu21,Leu27,Lys28]-Glucagon amide] (H-H[Aib]HGTFTSDLSKYLESRRAREFVQWLLK([γGlu-γGlu-AEEA-AEEA-γGlu-C18 diacid])T-NH2; N-terminus assumed) | 45 |

Next, values leading:

| THT assay Lag time (Ex. 76) [h] | SMILES |
| --- | --- |
| 45 | CC(C)C[C@H](NC(=O)[C@H](CC(=O)O)NC(=O)[C@H](CC(C)C)NC(=O)[C@H](Cc1ccc(O)cc1)NC(=O)[C@H](CCCCN)NC(=O)[C@H](CO)NC(=O)[C@H](CC(C)C)NC(=O)[C@H](CC(=O)O)NC(=O)[C@H](CO)NC(=O)[C@@H](NC(=O)[C@H](Cc1ccccc1)NC(=O)[C@@H](NC(=O)CNC(=O)[C@H](CCC(N)=O)NC(=O)C1(NC(=O)[C@@H](N)Cc2c[nH]cn2)CCC1)[C@@H](C)O)[C@@H](C)O)C(=O)N[C@@H](CCCNC(=N)N)C(=O)N[C@@H](CCCNC(=N)N)C(=O)N[C@@H](C)C(=O)N[C@@H](CCCNC(=N)N)C(=O)N[C@@H](CC(=O)O)C(=O)N[C@@H](Cc1ccccc1)C(=O)N[C@H](C(=O)N[C@@H](CCC(N)=O)C(=O)N[C@@H](Cc1c[nH]c2ccccc12)C(=O)N[C@@H](CC(C)C)C(=O)N[C@@H](CC(C)C)C(=O)N[C@@H](CCCCNC(=O)CC[C@H](NC(=O)CC[C@H](NC(=O)COCCOCCNC(=O)COCCOCCNC(=O)CC[C@H](NC(=O)CC[C@H](NC(=O)CCCCCCCCCCCCCCCCC(=O)O)C(=O)O)C(=O)O)C(=O)O)C(=O)O)C(=O)N[C@H](C(N)=O)[C@@H](C)O)C(C)C [Example 45, N^ε28-[(4S)-4-carboxy-4-[[(4S)-4-carboxy-4-[[2-[2-[2-[[2-[2-[2-[[(4S)-4-carboxy-4-[[(4S)-4-carboxy-4-(17-carboxyheptadecanoylamino)butanoyl]amino]butanoyl]amino]ethoxy]ethoxy]acetyl]amino]ethoxy]ethoxy]acetyl]amino]butanoyl]amino]butanoyl]-[Acb2,Leu10,Leu16,Arg20,Leu27,Lys28]-Glucagon amide] (H-H[Ac4c]QGTFTSDLSKYLDLRRARDFVQWLLK([γGlu-γGlu-AEEA-AEEA-γGlu-γGlu-C18 diacid])T-NH2; N-terminus assumed) |
| 45 | CC(C)C[C@H](NC(=O)[C@H](CC(=O)O)NC(=O)[C@H](CC(C)C)NC(=O)[C@H](Cc1ccc(O)cc1)NC(=O)[C@H](CCCNC(=N)N)NC(=O)[C@H](CO)NC(=O)[C@H](CC(C)C)NC(=O)[C@H](CC(=O)O)NC(=O)[C@H](CO)NC(=O)[C@@H](NC(=O)[C@H](Cc1ccccc1)NC(=O)[C@@H](NC(=O)CNC(=O)[C@H](CCC(N)=O)NC(=O)C1(NC(=O)[C@@H](N)Cc2c[nH]cn2)CCC1)[C@@H](C)O)[C@@H](C)O)C(=O)N[C@@H](CCCNC(=N)N)C(=O)N[C@@H](CCCNC(=N)N)C(=O)N[C@@H](C)C(=O)N[C@@H](CCCNC(=N)N)C(=O)N[C@@H](CC(=O)O)C(=O)N[C@@H](Cc1ccccc1)C(=O)N[C@H](C(=O)N[C@@H](CCC(N)=O)C(=O)N[C@@H](Cc1c[nH]c2ccccc12)C(=O)N[C@@H](CC(C)C)C(=O)N[C@@H](CC(C)C)C(=O)N[C@@H](CCCCNC(=O)CC[C@H](NC(=O)CC[C@H](NC(=O)COCCOCCNC(=O)COCCOCCNC(=O)CC[C@H](NC(=O)CC[C@H](NC(=O)CCCCCCCCCCCCCCCCC(=O)O)C(=O)O)C(=O)O)C(=O)O)C(=O)O)C(=O)N[C@H](C(N)=O)[C@@H](C)O)C(C)C [Example 46, N^ε28-[(4S)-4-carboxy-4-[[(4S)-4-carboxy-4-[[2-[2-[2-[[2-[2-[2-[[(4S)-4-carboxy-4-[[(4S)-4-carboxy-4-(17-carboxyheptadecanoylamino)butanoyl]amino]butanoyl]amino]ethoxy]ethoxy]acetyl]amino]ethoxy]ethoxy]acetyl]amino]butanoyl]amino]butanoyl]-[Acb2,Leu10,Arg12,Leu16,Arg20,Leu27,Lys28]-Glucagon amide] (H-H[Ac4c]QGTFTSDLSRYLDLRRARDFVQWLLK([γGlu-γGlu-AEEA-AEEA-γGlu-γGlu-C18 diacid])T-NH2; N-terminus assumed) |
